The target of one test is human P2X3 receptor (Homo sapiens (Human), UniProt P56373). Nature of the test: Evaluation of human P2X3 receptor inhibitory activity (Fluo-3 calcium fluorescence, FDSS 3000, ATP stimulation).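 Also: stimulus was 50 nM ATP with fluorescence followed for 3 min, and the response per well was peak post-ATP fluorescence divided by the reading at measurement start.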 It is filed as cell-based. The settings on record: C6BU-1 cells stably expressing human P2X3 receptor.
human P2X3 receptor, sequence (P56373 whole entry): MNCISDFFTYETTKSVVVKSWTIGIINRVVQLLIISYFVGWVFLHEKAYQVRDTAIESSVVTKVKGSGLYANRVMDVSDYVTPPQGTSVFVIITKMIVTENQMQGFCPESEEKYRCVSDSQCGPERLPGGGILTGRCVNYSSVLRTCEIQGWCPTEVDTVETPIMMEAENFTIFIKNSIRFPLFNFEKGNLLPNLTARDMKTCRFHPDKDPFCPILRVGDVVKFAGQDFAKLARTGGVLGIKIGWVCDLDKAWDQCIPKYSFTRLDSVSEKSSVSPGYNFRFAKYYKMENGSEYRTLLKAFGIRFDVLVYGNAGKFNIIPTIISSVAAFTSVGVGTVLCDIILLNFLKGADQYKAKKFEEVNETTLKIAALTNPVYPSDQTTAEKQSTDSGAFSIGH
The IC50 is the concentration that inhibits the measured activity by half. As for `COC(=O)[C@@H](C)Cn1c(=O)[nH]/c(=N\c2ccc(NC(=O)C(C)C)c(Cl)c2)n(Cc2ccc(C)cc2)c1=O` [Compound I-1419], the half-inhibitory concentration (IC50) was found to be 304 nM.

Consider `COC(=O)[C@@H](C)Cn1c(=O)[nH]/c(=N\c2ccc(CC(C)C)c(F)c2)n(Cc2ccc(Cl)cc2)c1=O` [Compound I-1254], for which the IC50 came out at 45 nM. Still for that read-out and setting: the value for `Cc1ccc(Cn2c(=O)n(CC(C)(C)C(=O)O)c(=O)[nH]/c2=N\c2cccc(C(F)(F)F)c2)cc1` [Compound I-1271] was 32 nM; that for `CCn1c(=O)[nH]/c(=N\c2ccc(Oc3cccc(C(N)=O)c3)cc2)n(Cc2ccc(Cl)cc2)c1=O` [Compound I-1925] was 6 nM. For the compound `CCn1c(=O)[nH]/c(=N\c2ccc(Oc3ccc([N+](=O)[O-])nc3)cc2)n(Cc2ccc(Cl)cc2)c1=O` [Compound I-2172], the IC50 stood at 1 nM.

On to `COC(=O)c1ccc(Cn2c(=O)[nH]/c(=N\c3ccc(OC(C)C)c(C)c3)n(Cc3ccc(Cl)cc3)c2=O)o1` [Compound I-0700], for which the IC50 came to 6 nM. On the same count and under the same terms, then `CCn1c(=O)[nH]/c(=N\c2ccc(Oc3cccc(C(=O)OC)c3)cc2)n(Cc2ccc(C)cc2)c1=O` [Compound I-2028], with 13 nM; and `Cc1ccc(Cn2c(=O)n(CCC(=O)O)c(=O)[nH]/c2=N\c2cccc(Cl)c2F)cc1` [Compound I-2054], with 611 nM. Regarding `COC(=O)c1cccc(Oc2ccc(/N=c3\[nH]c(=O)[nH]c(=O)n3Cc3ccc(Cl)cc3)cc2)c1` [Compound I-1919], the IC50 came out at 214 nM. Same read-out and setting: the value for `COC(=O)[C@@H](C)[C@@H](C)n1c(=O)[nH]/c(=N\c2ccc(CC(C)C)c(Cl)c2)n(Cc2ccc(Cl)cc2)c1=O` [Compound I-1438] was 63 nM; that for `CCOC(=O)c1coc(Oc2ccc(/N=c3\[nH]c(=O)n(CC)c(=O)n3Cc3ccc(Cl)cc3)cc2)n1` [Compound I-2188] was 9 nM.

Regarding `CCCCCc1ccc(/N=c2\[nH]c(=O)n(C[C@H](C)C(=O)OC)c(=O)n2Cc2ccc(C)cc2)cc1` [Compound I-1203], the IC50 worked out at 532 nM. Still for that read-out and setting: the value for `COC(=O)c1cccc(Cn2c(=O)[nH]/c(=N\c3ccc(OC(C)C)c(C)c3)n(Cc3ccc(Cl)cc3)c2=O)n1` [Compound I-0781] was 9 nM; that for `COc1cc(/N=c2\[nH]c(=O)n(C[C@H](C)C(=O)O)c(=O)n2Cc2ccc(C)cc2)ccc1CC(C)C` [Compound I-1261] was 18 nM; that for `Cc1ccc(Cn2c(=O)n(CCCC(=O)O)c(=O)[nH]/c2=N\c2ccc(Oc3ccc(C)nc3)cc2)cc1` [Compound I-1395] was 23 nM.

As for `CCn1c(=O)[nH]/c(=N\c2ccc(Oc3nc(O)nc(O)n3)cc2)n(Cc2ccc(Cl)cc2)c1=O` [Compound I-2222], the IC50 turned out to be 5 nM.

As for `Cc1cc(/N=c2\[nH]c(=O)n([C@@H]3CN[C@H](C(=O)O)C3)c(=O)n2Cc2ccc(Cl)cc2)ccc1OC(C)C` [Compound I-0716], the concentration for half-maximal inhibition (IC50) came out at 102 nM. The same measure, in the same setting: the value for `CCn1c(=O)[nH]/c(=N\c2ccc(Oc3ccnc(NC(=O)NC4CC4)c3)cc2)n(Cc2ccc(Cl)cc2)c1=O` [Compound I-2213] was 2 nM; that for `CCn1c(=O)[nH]/c(=N\c2ccc(Oc3cc(F)cc(C(=O)OC)c3)cc2)n(Cc2ccc(Cl)cc2)c1=O` [Compound I-2219] was 14 nM; that for `CCn1c(=O)[nH]/c(=N\c2ccc(Oc3ccnc(C(=O)O)c3)cc2)n(CC2CCC(C)(C)CC2)c1=O` [Compound I-2208] was 12 nM. On the same count and under the same terms, then `CCn1c(=O)[nH]/c(=N\c2ccc(Oc3cncc(C(N)=O)c3)cc2)n(Cc2ccc(F)cc2)c1=O` [Compound I-2120], with 33 nM.

Staying with this test, now noted: C6BU-1 cells stably expressing human P2X3 receptor, Fluo-3 fluorescence, FDSS 3000.
Take `O=C(O)CCn1c(=O)[nH]/c(=N\c2ccc(OCc3cccnc3)cc2)n(Cc2ccc(Cl)cc2)c1=O` [Compound I-1632]: the IC50 came out at 389 nM. On to `CCc1oc2ccc(/N=c3\[nH]c(=O)n(CC(=O)NC)c(=O)n3Cc3ccc(Cl)cc3)cc2c1C` [Compound I-1657], for which the IC50 turned out to be 9 nM. Same read-out and setting: the value for `Cc1ccc(Cn2c(=O)n(C[C@H](C)C(=O)O)c(=O)[nH]/c2=N\c2ccc(CC3CCCC3)cc2)cc1` [Compound I-1100] was 43 nM; that for `CCOc1ccc(/N=c2\[nH]c(=O)n([C@@H](C)[C@@H](C)C(=O)O)c(=O)n2Cc2ccc(C)cc2)cc1Cl` [Compound I-0973] was 19 nM. For the compound `O=c1[nH]/c(=N\c2ccc(Oc3cncc(F)c3)cc2)n(Cc2ccc(Cl)cc2)c(=O)n1CCCO` [Compound I-1596], the IC50 was determined as 4 nM. Consider `CCc1oc2ccc(/N=c3\[nH]c(=O)n(C[C@H]4COC(C)(C)O4)c(=O)n3Cc3ccc(Cl)cc3)cc2c1C` [Compound I-1604], for which the IC50 was 8 nM. As for `CCOC(=O)C1(Cn2c(=O)[nH]/c(=N\c3ccc(OC(C)C)c(C)c3)n(Cc3ccc(C)cc3)c2=O)CC1` [Compound I-0941], the IC50 was determined as 5 nM.

As to `CCn1c(=O)[nH]/c(=N\c2ccc(Oc3ccnc(CO)c3)cc2)n(Cc2ccc(Cl)cc2)c1=O` [Compound I-1844], the IC50 is 4 nM. Consider `CCOc1ccc(/N=c2\[nH]c(=O)n(C[C@H](C)C(=O)O)c(=O)n2Cc2ccc(C)cc2)cc1Br` [Compound I-1179], for which the 50% inhibitory concentration (IC50) amounted to 33 nM. On the same count and under the same terms, the value for `O=C(O)C1(Cn2c(=O)[nH]/c(=N\c3ccc(OCC4CC4)cc3)n(Cc3ccc(Cl)cc3)c2=O)CC1` [Compound I-0934] was 57 nM; that for `COC(=O)[C@H](C)[C@H](C)n1c(=O)[nH]/c(=N\c2ccc(OC(C)C)cc2)n(Cc2ccc(C)cc2)c1=O` [Compound I-1081] was 30 nM. Same read-out and setting: the value for `CC(C)n1ncc2cc(/N=c3\[nH]c(=O)n([C@@H](C)[C@@H](C)C(=O)O)c(=O)n3Cc3ccc(Cl)cc3)ccc21` [Compound I-1744] was 242 nM; that for `CCCCCOc1ccc(/N=c2\[nH]c(=O)n(C[C@H](C)C(=O)OC)c(=O)n2Cc2ccc(C)cc2)cc1` [Compound I-1057] was 89 nM.

Still in this test, the particulars now being: human P2X3 receptor, Test Example 1.
Take `CCn1c(=O)[nH]/c(=N\c2ccc3nc(O)sc3c2)n(Cc2ccc(Cl)cc2)c1=O` [Compound I-2325]: the IC50 came out at 47 nM. Same read-out and setting: the value for `CCn1c(=O)[nH]/c(=N\c2ccc3nc(/C=N\OC)sc3c2)n(Cc2ccc(Cl)cc2)c1=O` [Compound I-2338] was 260 nM. Same read-out and setting: the value for `NC(=O)Cn1c(=O)[nH]/c(=N\c2ccc(Oc3ccon3)c(F)c2)n(Cc2ccc(Cl)cc2)c1=O` [Compound I-2586] was 7 nM; that for `Cn1c(=O)[nH]/c(=N\c2ccc(Oc3cc(C(=O)O)ncn3)cc2)n(Cc2ccc(Cl)cc2)c1=O` [Compound I-2447] was 10 nM; that for `CCn1c(=O)[nH]/c(=N\c2ccc(Oc3cncc(C(N)=O)c3)cc2)n(Cc2ccc(Cl)cn2)c1=O` [Compound I-2236] was 62 nM. As to `CCn1c(=O)[nH]/c(=N\c2ccc(Oc3cccc(/C=C/C(=O)O)c3)cc2)n(Cc2ccc(C)cc2)c1=O` [Compound I-2344], the IC50 worked out at 3 nM. Same read-out and setting: then `O=c1[nH]/c(=N\c2ccc(Oc3nccs3)cc2)n(Cc2ccc(Cl)cc2)c(=O)n1C[C@@H](O)CO` [Compound I-2506], with 14 nM; and `NC(=O)CCn1c(=O)[nH]/c(=N\c2ccc(Oc3cccc(F)n3)cc2)n(Cc2ccc(Cl)cc2)c1=O` [Compound I-2654], with 9 nM; and `Cc1ccc(Cn2c(=O)n(CCC(=O)O)c(=O)[nH]/c2=N\c2ccc(Oc3cccc(C#N)n3)cc2)cc1` [Compound I-2634], with 11 nM. Same read-out and setting: then `CC(=O)Nc1ccc(Oc2ccc(/N=c3\[nH]c(=O)n(C)c(=O)n3Cc3ccc(Cl)cc3)cc2)cn1` [Compound I-2429], with 5 nM; and `CCOC(=O)CNc1cc(Oc2ccc(/N=c3\[nH]c(=O)n(CC)c(=O)n3Cc3ccc(Cl)cc3)cc2)ccn1` [Compound I-2549], with 12 nM. On the same count and under the same terms, the value for `CCn1c(=O)[nH]/c(=N\c2ccc(Oc3ccc(C(=O)OC)nc3)cc2)n(Cc2ccc(Cl)cn2)c1=O` [Compound I-2275] was 10 nM; that for `CCn1c(=O)[nH]/c(=N\c2ccc(Oc3ccc(C(=O)O)nn3)cc2)n(Cc2ccc(Cl)cc2)c1=O` [Compound I-2273] was 12 nM. On to `CCOC(=O)CCCn1c(=O)[nH]/c(=N\c2ccc(OCC)c(Cl)c2)n(Cc2ccc(C)cc2)c1=O` [Compound I-0862], for which the IC50 turned out to be 10 nM. Take `CC1(Cn2c(=O)[nH]/c(=N\c3ccc(Oc4ccon4)cc3)n(Cc3ccc(Cl)cc3)c2=O)COC(C)(C)OC1` [Compound I-2630]: the IC50 turned out to be 3 nM. The same measure, in the same setting: then `Cc1ccc(Cn2c(=O)n(C[C@H](C)C(=O)O)c(=O)[nH]/c2=N\c2cnc(OC3CCC3)c(C)c2)cc1` [Compound I-1482], with 98 nM. The same measure, in the same setting: the value for `CCn1c(=O)[nH]/c(=N\c2ccc(Sc3ccc(C(=O)O)cc3)cc2)n(Cc2ccc(Cl)cc2)c1=O` [Compound I-2603] was 125 nM. Turning to `CCn1c(=O)[nH]/c(=N\c2ccc(Oc3ccn[nH]3)cc2)n(Cc2ccc(Cl)cc2)c1=O` [Compound I-2455], the IC50 amounted to 63 nM. The same measure, in the same setting: the value for `CCn1c(=O)[nH]/c(=N\c2ccc(Oc3ncccc3C(=O)O)cc2)n(Cc2ccc(Cl)cc2)c1=O` [Compound I-2366] was 90 nM; that for `Cc1nsc(Oc2ccc(/N=c3\[nH]c(=O)n(C[C@H](O)CO)c(=O)n3Cc3ccc(Cl)cc3)cc2F)n1` [Compound I-2708] was 2 nM. Same read-out and setting: the value for `CCn1c(=O)[nH]/c(=N\c2ccc(Oc3cc(C(=O)O)sn3)cc2)n(Cc2ccc(Cl)cc2)c1=O` [Compound I-2249] was 6 nM; that for `Cc1cc(/N=c2\[nH]c(=O)n([C@H](C)[C@H](C)C(=O)O)c(=O)n2Cc2ccc(Cl)cc2)ccc1OC(C)C` [Compound I-0825] was 25 nM; that for `CCn1c(=O)[nH]/c(=N\c2ccc(Oc3cccc(C#N)n3)cc2)n(Cc2ccc(F)cc2)c1=O` [Compound I-2466] was 16 nM. Still for that read-out and setting: the value for `Cn1c(=O)[nH]/c(=N\c2ccc(Oc3cc(C(N)=O)ccn3)cc2)n(Cc2ccc(Cl)cc2)c1=O` [Compound I-2376] was 20 nM; that for `CNC(=O)Cn1c(=O)[nH]/c(=N\c2ccc(Oc3cnsn3)cc2)n(Cc2ccc(Cl)cc2)c1=O` [Compound I-2676] was 13 nM; that for `O=c1[nH]/c(=N\c2ccc(Oc3noc(C4CC4)n3)cc2)n(Cc2ccc(Cl)cc2)c(=O)n1C[C@H](O)CO` [Compound I-2596] was 51 nM.

For the origin of these results see patent US9718790B2, “Triazine derivative and pharmaceutical composition having an analgesic activity comprising the same” (SHIONOGI & CO., LTD., priority 2010, dated 2017).
